Assay results from PMC5344539, “Nematode neuropeptides as transgenic nematicides” (PLoS Pathogens, 2017).
Entries after “also recorded” stand apart in the source; their conditions may differ.

System: M. incognita J2s
Test: Chemosensory (chemotaxis) assay of uNLP pre-treated J2s towards tomato root exudate
Assay type: in vivo, Meloidogyne incognita
Procedure: Predicted uNLPs from both M. incognita and G. pallida were synthesised by EZBiolab and dissolved into pH adjusted ddH2O to make a 5 mM stock which was aliquoted and stored at -20°C. J2s of both M. incognita and G. pallida were incubated for 24 hours in 200 μl of each peptide in a 24 well plate (SPL Lifesciences, South Korea) at a defined concentration.
A 60 mm Petri dish was divided into two segments, a positive and a negative side, with a 0.5 cm 'dead zone' either side of the centre point. The petri dish was filled with 15 ml of 0.25% w/v agar which was allowed to solidify. 3 ml of 0.25% w/v agar slurry in spring water (pH 7, agitated with a magnetic stirrer for several hours to give a smooth consistency) was added to the petri dish and spread evenly over the surface. Root diffusate (attractant) and water only (control) 0.25% agar plugs were embedded in the agar slurry, either side of the assay arena. Root diffusate was collected from 10 tomato plants, aged 3–6 weeks in 1 litre pots, by pouring 500 ml of ddH20 through the soil three times. Diffusate from each plant was combined, filter sterilised and stored at 4°C for a maximum of 1 month. Root diffusate agar plugs were made by melting 1.25% agar in ddH20, cooling to 50°C before mixing with 4 parts of root diffusate. The agar was then allowed to solidify at room temperature. 100 uNLP pre-treated M. incognita or G. pallida J2s were added by pipette to the centre of the plate. J2s which moved out of the 'dead zone' after 3 hours were counted and their location (+/-) scored. The distribution of J2s were used to create a chemotaxis index for each plate, which formed one replicate, a total of 10 replicates where completed for each uNLP treatment.

SFDSFTGPGFTGLD [Mi-NLP-15b, predicted unamidated NLP perfectly conserved between M. incognita and G. pallida; synthesised, also secreted from transgenic microbes]
effect on chemosensation (in words) (100 μM uNLP, 24 h, relative to controls): inhibit chemosensation; also recorded: inhibited
CI score (Fig 1A, J2s incubated in 100 μM uNLP for 24 h, tomato cv. Moneymaker root exudate vs water agar plugs, counted after 3 h, mean of 10 replicates of 100 J2s, control 0.4426): -0.3408
CI score (Fig 3A, 100 pM peptide, 24 h, control 0.4133, mean): 0.03117
CI score (Fig 3A, 1 nM peptide, 24 h, control 0.4133, mean): -0.07105
CI score (Fig 3A, 10 nM peptide, 24 h, control 0.4133, mean): -0.1741
CI score (Fig 3A, 100 nM peptide, 24 h, control 0.4133, mean): -0.1195
CI score (Fig 3A, 1 µM peptide, 24 h, control 0.4133, mean): -0.1344
CI score (Fig 3A, 10 µM peptide, 24 h, control 0.4133, mean): -0.03579
CI score (Fig 3A, 100 µM peptide, 24 h, control 0.4133, mean): -0.3782
CI score (Fig 3A, concentration printed as 22:00:00, 24 h, control 0.4133, mean): -0.1553
lowest concentration inhibiting chemosensation (serial dilution, 24 h exposure (Fig 3)): ≤ 10 pM
